# In patent US11786494B2, “Methods of modulation of branched chain acids and uses thereof” (Baylor College of Medicine, priority 2009, dated 2023):
# Legend:
# BCKDC [1] = assay: Leucine oxidation in lymphoblast cell lines without CIC; format: cell-based, human
# Method: FIGS. 7A-7C. FIGS. 7A and 7B show leucine oxidation in lymphoblast cells from control subjects (C-660, C-661) and MSUD patients (P-1, -2, -3, -4, -5) untreated or treated with 1 mM phenylbutyrate for 48 h. Leucine oxidation was measured by using radioactive assay as described in Materials and Methods and is expressed in pmol CO2 released/min/mg protein. Values are means±SD (n=3), * p≥0.05, **p≥0.01. […] Images are representative of three independent experiments.
# Following treatment with phenylbutyrate, enzyme activity in control and patients' lymphoblast cell lines was measured. Transformed lymphoblast cell lines were available from all 5 MSUD patients and from 2 controls to measure BCKDC activity. Lymphoblasts were incubated for 48 h with and without 1 mM phenylbutyrate (a lower concentration of phenylbutyrate was used because of higher sensitivity of these cells as compared to fibroblasts to the drug) then BCKDC activity was measured without α-chloroisocaproate addition (CIC). […] Thus, in cells from the two patients with E2 mutations (Table 7), activation of enzyme activity results from inhibition of phosphorylation state of E1α, in specific embodiments of the invention.
# [2] = molecular target: T1, mitochondrial branched chain amino transferase (BCATm) (Homo sapiens, UniProt O15382); assay: BCATm activity with purified recombinant enzyme; format: biochemical; settings: pH 8.0, 298 K
# T1 sequence (O15382 28-392): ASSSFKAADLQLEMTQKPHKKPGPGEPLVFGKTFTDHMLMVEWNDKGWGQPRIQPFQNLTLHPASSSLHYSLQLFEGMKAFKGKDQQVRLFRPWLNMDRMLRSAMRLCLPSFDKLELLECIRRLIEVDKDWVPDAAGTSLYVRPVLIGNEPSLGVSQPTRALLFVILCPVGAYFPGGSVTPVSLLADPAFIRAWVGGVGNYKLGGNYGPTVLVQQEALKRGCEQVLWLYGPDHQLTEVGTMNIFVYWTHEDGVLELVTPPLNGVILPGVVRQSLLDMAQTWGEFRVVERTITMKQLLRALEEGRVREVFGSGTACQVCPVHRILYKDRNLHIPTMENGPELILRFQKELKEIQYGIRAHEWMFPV
# Method: (§1) To determine the effect of phenylbutyrate on individual BCAA catabolic enzymes, activities of mitochondrial branched chain amino transferase (BCATm) and BCKDC enzymes were measured with and without phenylbutyrate using purified recombinant enzymes. BCATm generates the BCKA products that are elevated in MSUD and are the substrates for BCKDC. BCATm activity was measured at pH 8.0 and 298 K as described in Example 2. Kinetics of the E1 decarboxylase reaction with and without phenylbutyrate were determined in the presence of an artificial electron acceptor 2, 6-dichlorophenolindophenol (DCPIP). The assay mixture contained 100 mM potassium phosphate, pH 7.5, 2.0 mM MgCl2, 0.2 mM thiamin diphosphate (ThDP) and 0.1 mM DCPIP. The rate of decarboxylation at 30° C. was measured by monitoring the reduction of the dye at 600 nm (24, 25). For the overall BCKDC activity assay, the enzymes were exchanged into phosphate buffer (30 mM potassium phosphate, pH 7.5) containing 5 mM DTT using a PD-10 column and the enzyme concentrations were calculated from the absorption maxima at 280 nm. […] The overall reaction was monitored by formation of NADH at 340 nm. The apparent rate constants (kapp) at different substrate concentrations for all of the above assays were determined from the absorption changes at the individual wavelength maximum. […]
# [3] = cited from earlier work
# BCKDC [4] = molecular target: T2, BCKDC (Homo sapiens, UniProt P12694+P21953); assay: Overall BCKDC activity assay (reconstituted E1, lip-E2, E3; NADH formation); format: biochemical; settings: Activity of BCKDC, [+] Phenylbutyrate
# T2 sequence (P12694 46-445): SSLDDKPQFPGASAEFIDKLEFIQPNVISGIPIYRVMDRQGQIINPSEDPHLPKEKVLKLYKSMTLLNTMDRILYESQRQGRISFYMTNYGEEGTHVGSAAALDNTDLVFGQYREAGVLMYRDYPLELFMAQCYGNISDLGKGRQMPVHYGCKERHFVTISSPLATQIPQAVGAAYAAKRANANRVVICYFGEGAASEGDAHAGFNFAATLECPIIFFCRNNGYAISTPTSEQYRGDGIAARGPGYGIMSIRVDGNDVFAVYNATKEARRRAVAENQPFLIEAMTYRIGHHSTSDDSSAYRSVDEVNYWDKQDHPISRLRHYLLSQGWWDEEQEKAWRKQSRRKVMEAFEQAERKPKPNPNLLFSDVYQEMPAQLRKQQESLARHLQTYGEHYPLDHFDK
# T2 sequence (P21953 51-392): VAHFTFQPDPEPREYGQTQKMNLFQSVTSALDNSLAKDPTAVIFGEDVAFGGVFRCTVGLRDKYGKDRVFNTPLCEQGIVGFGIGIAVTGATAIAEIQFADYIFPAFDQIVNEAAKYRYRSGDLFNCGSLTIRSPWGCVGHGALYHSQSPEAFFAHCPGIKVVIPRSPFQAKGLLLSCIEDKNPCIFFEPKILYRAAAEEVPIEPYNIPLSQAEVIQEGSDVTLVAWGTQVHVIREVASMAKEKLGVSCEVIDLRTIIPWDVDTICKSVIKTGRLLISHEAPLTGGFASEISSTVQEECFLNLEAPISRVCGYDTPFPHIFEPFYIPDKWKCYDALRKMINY
# Method: as §1
compound,measurement,setting,value
"O=C([O-])CCCc1ccccc1.[Na+] [phenylbutyrate, sodium 4-phenylbutyrate]",leucine oxidation,"BCKDC [1]; MSUD patient lymphoblasts with the exception of patient 5, 1 mM for 48 h",significantly enhanced
same,leucine oxidation,"BCKDC [1]; control lymphoblasts (C-660, C-661), 1 mM for 48 h",significantly enhanced
same,leucine oxidation increase,"BCKDC [1]; patient 5 lymphoblasts, 1 mM for 48 h",not significant
same,BCATm kinetics including kcat and Km,[2],no effect
same,time at which measurable plasma levels are detected,[3]; after oral administration of phenylbutyrate,15 min
same,Peak concentrations of phenylbutyrate,[3]; oral administration,approximately 1 mmol/1
same,time at which peak concentrations are reached,[3]; oral administration,1 h
same,elimination half-life,"[3]; oral phenylbutyrate, estimated",48 min
same,fraction of the drug excreted by the kidneys as the conjugated product PAG,"[3]; within 24 h, most subjects",80-100%
same,"kcat, KMV",BCKDC [4],3.767 ± 0.3 s⁻¹
